Values after ≈ are worked out from the molar mass of the structure shown.
Assays:
[1] = test system: Pseudomonas aeruginosa 1771; test: Antibacterial activity, MIC by Agar dilution method, standard test strain 14; assay type: cell-based; conditions: 10^7 CFU/ml, 37° C., 18 hours
Method: (§1) The antibacterial activity was determined by an Agar dilution method as described below.
(§2) That is, the two-fold serial dilutions of the antibacterial compounds (1000 μg compound/ml) were prepared and dispersed in Muller Hinton Agar in a petri dish to a concentration of 100~0.002 μg/ml. The culture broths of standard test strains were inoculated on the medium to a concentration 10^7 CFU/ml, and incubated at 37° C. for 18 hours. The concentration of compounds(I) at which the strains were not grown was regarded as minimum inhibition concentration (MIC).
(§3) The results of antibacterial activity test of the representative examples of the compound (I) against 20 standard test strains shown in terms of MIC were indicated in Table 1.
14. Pseudomonas aeruginosa 1771

[2] = test system: Klebsiella aerogenes 1522E; test: Antibacterial activity, MIC by Agar dilution method, standard test strain 18; assay type: cell-based; conditions: Klebsiella aerogenes, 1522E, 18 h
Method: as §1, §2, §3
18. Klebsiella aerogenes 1522E

Escherichia coli 1507E = test: Antibacterial activity, MIC by Agar dilution method, standard test strain 11; assay type: cell-based; conditions: Escherichia coli, 1507E, 18 h
Method: as §1, §2, §3

Escherichia coli O 55 = test: Antibacterial activity, MIC by Agar dilution method, standard test strain 7; assay type: cell-based; conditions: Escherichia coli, O55, 18 h
Method: as §1, §2, §3

[3] = test system: Pseudomonas aeruginosa 1592E; test: Antibacterial activity, MIC by Agar dilution method, standard test strain 13; assay type: cell-based; conditions: 10^7 CFU/ml, 37° C., 18 hours
Method: as §1, §2, §3
13. Pseudomonas aeruginosa 1592E

[4] = test system: Streptococcus pyogenes A 308; test: Antibacterial activity, MIC by Agar dilution method, standard test strain 1; assay type: cell-based; conditions: A308, 10^7 CFU/ml, 37° C., 18 hours
Method: as §1, §2, §3
1. Streptococcus pyogenes A 308

[5] = test system: Enterobacter cloacae 1321E; test: Antibacterial activity, MIC by Agar dilution method, standard test strain 20; assay type: cell-based; conditions: Enterobacter cloacae, 1321E, 18 h
Method: as §1, §2, §3
20. Enterobacter cloacae 1321E

[6] = test system: Gram-positive strains, for example, Staphylococcus aureus; test: Antibacterial activity against Gram-positive strains (summary in words); assay type: cell-based; conditions: e.g. Staphylococcus aureus resistant to third-generation cephalosporins
Method: as §1, §2

Klebsiella oxytoca 1082E = test: Antibacterial activity, MIC by Agar dilution method, standard test strain 17; assay type: cell-based; conditions: 10^7 CFU/ml, 37° C., 18 hours
Method: as §1, §2, §3

Escherichia coli DC O = test: Antibacterial activity, MIC by Agar dilution method, standard test strain 8; assay type: cell-based; conditions: Escherichia coli, 18 h
Method: as §1, §2, §3

[7] = test system: Pseudomonas aeruginosa 9027; test: Antibacterial activity, MIC by Agar dilution method, standard test strain 12; assay type: cell-based; conditions: 10^7 CFU/ml, 37° C., 18 hours
Method: as §1, §2, §3
12. Pseudomonas aeruginosa 9027

D Streptococcus II = test: MIC against clinically isolated strains; assay type: cell-based; conditions: 18 h, 20 clinical isolates
Method: as §1, §2

Pseudomonas aeruginosa = test: MIC against clinically isolated strains; assay type: cell-based; conditions: 18 h, 20 clinical isolates
Method: as §1, §2

Streptococcus II = test: MIC against clinically isolated strains; assay type: cell-based; conditions: 18 h, 17 clinical isolates
Method: as §1, §2

D Streptococcus I = test: MIC against clinically isolated strains; assay type: cell-based; conditions: 18 h, 20 clinical isolates
Method: as §1, §2

Providencia rettgeri = test: MIC against clinically isolated strains; assay type: cell-based; conditions: 18 h, 6 clinical isolates
Method: as §1, §2

Pseudomonas I = test: MIC against clinically isolated strains; assay type: cell-based; conditions: 18 h, 19 clinical isolates
Method: as §1, §2

Morganella morganil = test: MIC against clinically isolated strains; assay type: cell-based; conditions: 18 h, 5 clinical isolates
Method: as §1, §2

Streptococcus I = test: MIC against clinically isolated strains; assay type: cell-based; conditions: 20 clinical isolates
Method: as §1, §2

Pseudomonas II = test: MIC against clinically isolated strains; assay type: cell-based; conditions: 18 h, 19 clinical isolates
Method: as §1, §2

Enterobacter cloacae = test: MIC against clinically isolated strains; assay type: cell-based; conditions: 20 clinical isolates
Method: as §1, §2

[8] = test system: Staphylococcus aureus 503; test: Antibacterial activity, MIC by Agar dilution method, standard test strain 6; assay type: cell-based; conditions: 10^7 CFU/ml, 37° C., 18 hours
Method: as §1, §2, §3
6. Staphylococcus aureus 503

Enterobacter cloacae P99 = test: Antibacterial activity, MIC by Agar dilution method, standard test strain 19; assay type: cell-based; conditions: P99, 18 h
Method: as §1, §2, §3
19. Enterobacter cloacae P99

[9] = target: T1, β-lactamase from Citrobacter freundii (Citrobacter freundii, UniProt P05193); test: Stability against β-lactamase, relative hydrolysis; assay type: biochemical; conditions: Citrobacter freundii enzyme; 100 μM; relative(percentage), Cephaloridine taken as 100; OD at 260 nm
T1 construct: directly isolated from Enterobacter cloacae P99, E. coli TEM and Citrobacter freundii; endogenous in cells
T1 sequence (P05193 21-381): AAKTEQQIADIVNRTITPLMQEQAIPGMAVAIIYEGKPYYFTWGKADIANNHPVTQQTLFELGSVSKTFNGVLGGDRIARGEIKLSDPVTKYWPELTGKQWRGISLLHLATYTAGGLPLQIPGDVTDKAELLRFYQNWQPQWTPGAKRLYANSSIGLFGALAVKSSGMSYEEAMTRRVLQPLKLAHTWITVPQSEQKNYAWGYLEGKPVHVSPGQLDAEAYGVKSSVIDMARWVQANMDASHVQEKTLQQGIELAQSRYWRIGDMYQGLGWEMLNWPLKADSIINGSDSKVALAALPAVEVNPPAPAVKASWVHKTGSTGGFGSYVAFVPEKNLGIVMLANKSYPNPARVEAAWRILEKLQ
Method: (§4) In order to establish the usefulness in clinical applications of the compounds provided by the invention, the compound of Example 18 was tested for stability against the β-lactamase and for antibacterial activity on systemic infection model.
(§5) First, the stability against the β-lactamase was tested by determining the relative(percentage) hydrolysis of the compound of Example 18, relative to that of Cephaloridine, taking the absolute rate of Cephaloridine as 100.
(§6) The β-lactamases employed in the test were directly isolated from Enterobacter cloacae P99, E. coli TEM and Citrobacter freundii, and the antibiotics for comparison were Cephaloridine, Cephradine, Cefoperazone and Cefotaxime.
(§7) Cephaloridine, other known antibiotics and the compound of Example 18 were reacted with each of the enzymes isolated from the strains and the OD were determined at 260 nm, λmax of Cephaloridine. The relative hydrolysis of various compounds were calculated relative to the OD of Cephaloridine.

[10] = target: T2, β-lactamase from E. coli TEM (Escherichia coli, UniProt P62593); test: Stability against β-lactamase, relative hydrolysis; assay type: biochemical; conditions: E. coli TEM enzyme; 100 μM; relative(percentage), Cephaloridine taken as 100; OD at 260 nm
T2 construct: directly isolated from Enterobacter cloacae P99, E. coli TEM and Citrobacter freundii; endogenous in cells; host or cells: E. coli TEM (plasmid-carried enzyme of the strain)
T2 sequence (P62593 24-286 limits assumed): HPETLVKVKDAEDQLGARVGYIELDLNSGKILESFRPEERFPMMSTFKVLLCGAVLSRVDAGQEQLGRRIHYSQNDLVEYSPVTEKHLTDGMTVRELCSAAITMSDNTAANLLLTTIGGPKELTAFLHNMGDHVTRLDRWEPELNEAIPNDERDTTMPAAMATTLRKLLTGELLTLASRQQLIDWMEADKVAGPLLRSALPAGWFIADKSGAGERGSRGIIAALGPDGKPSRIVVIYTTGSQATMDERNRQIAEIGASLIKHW
Method: as §4, §5, §6, §7

[11] = test system: Staphylococcus aureus SG 511; test: Antibacterial activity, MIC by Agar dilution method, standard test strain 4; assay type: cell-based; conditions: SG511, 10^7 CFU/ml, 37° C., 18 hours
Method: as §1, §2, §3
4. Staphylococcus aureus SG 511

Staphyloccus aureus 285 = test: Antibacterial activity, MIC by Agar dilution method, standard test strain 5; assay type: cell-based; conditions: 10^7 CFU/ml, 37° C., 18 hours
Method: as §1, §2, §3
5. Staphyloccus aureus 285

Question: For CON=C(C(=O)NC1C(=O)N2C(C(=O)[O-])=C(C[n+]3nn(N)c4ccccc43)CSC12)c1csc(N)n1 [Example 18, (6R,7R)-7-[(Z)-2-(2-aminothiazol-4-yl)-2-methoxyiminoacetamido]-3-[(1-aminobenzotriazol-3-ium)methyl]-ceph-3-em-4-carboxylate], which MIC [1] is on record?
Answer: 1.56 µg/mL (≈ 2.95 µM)

Question: And the MIC [2]?
Answer: 0.025 µg/mL (≈ 0.0472 µM)

Question: And the MIC (Escherichia coli 1507E)?
Answer: 0.025 µg/mL (≈ 0.0472 µM)

Question: What about the MIC (Escherichia coli O 55) of the same compound?
Answer: 0.007 µg/mL (≈ 0.0132 µM)

Question: And the MIC [3]?
Answer: 1.56 µg/mL (≈ 2.95 µM)

Question: What about the MIC [4] of the same compound?
Answer: 0.004 µg/mL (≈ 0.00755 µM)

Question: And the MIC [5]?
Answer: 0.007 µg/mL (≈ 0.0132 µM)

Question: What about the “antibacterial activity (in words)” value [6] of the same compound?
Answer: strong activity

Question: What about the MIC (Klebsiella oxytoca 1082E) of the same compound?
Answer: 0.049 µg/mL (≈ 0.0925 µM)

Question: And the MIC (Escherichia coli DC O)?
Answer: 0.025 µg/mL (≈ 0.0472 µM)

Question: What about the MIC [7] of the same compound?
Answer: 3.12 µg/mL (≈ 5.9 µM)

Question: And the MIC (D Streptococcus II)?
Answer: 3.12 to 100 µg/mL (≈ 5.9 to 189 µM)

Question: What about the MIC50 (D Streptococcus II) of the same compound?
Answer: 25 µg/mL (≈ 47.2 µM)

Question: What about the MIC90 (D Streptococcus II) of the same compound?
Answer: 50 µg/mL (≈ 94.4 µM)

Question: What about the MIC (Pseudomonas aeruginosa) of the same compound?
Answer: 1.56 to 25 µg/mL (≈ 2.95 to 47.2 µM)

Question: What about the MIC50 (Pseudomonas aeruginosa) of the same compound?
Answer: 6.25 µg/mL (≈ 11.8 µM)

Question: What about the MIC90 (Pseudomonas aeruginosa) of the same compound?
Answer: 12.5 µg/mL (≈ 23.6 µM)

Question: What about the MIC (Streptococcus II) of the same compound?
Answer: 0.002 to 0.013 µg/mL (≈ 0.00378 to 0.0245 µM)

Question: What about the MIC50 (Streptococcus II) of the same compound?
Answer: 0.004 µg/mL (≈ 0.00755 µM)

Question: What about the MIC90 (Streptococcus II) of the same compound?
Answer: 0.007 µg/mL (≈ 0.0132 µM)

Question: What about the MIC (D Streptococcus I) of the same compound?
Answer: 3.12 to 100 µg/mL (≈ 5.9 to 189 µM)

Question: And the MIC50 (D Streptococcus I)?
Answer: 12.5 µg/mL (≈ 23.6 µM)

Question: What about the MIC90 (D Streptococcus I) of the same compound?
Answer: 100 µg/mL (≈ 189 µM)

Question: What about the MIC (Providencia rettgeri) of the same compound?
Answer: 0.007 to 0.195 µg/mL (≈ 0.0132 to 0.368 µM)

Question: And the MIC50 (Providencia rettgeri)?
Answer: 0.025 µg/mL (≈ 0.0472 µM)

Question: And the MIC90 (Providencia rettgeri)?
Answer: 0.098 µg/mL (≈ 0.185 µM)

Question: And the MIC (Pseudomonas I)?
Answer: 0.195 to 12.5 µg/mL (≈ 0.368 to 23.6 µM)

Question: And the MIC50 (Pseudomonas I)?
Answer: 1.56 µg/mL (≈ 2.95 µM)

Question: What about the MIC90 (Pseudomonas I) of the same compound?
Answer: 6.25 µg/mL (≈ 11.8 µM)

Question: What about the MIC (Morganella morganil) of the same compound?
Answer: 0.004 to 0.025 µg/mL (≈ 0.00755 to 0.0472 µM)

Question: What about the MIC50 (Morganella morganil) of the same compound?
Answer: 0.013 µg/mL (≈ 0.0245 µM)

Question: And the MIC90 (Morganella morganil)?
Answer: 0.025 µg/mL (≈ 0.0472 µM)

Question: And the “MIC Range” value (Streptococcus I)?
Answer: 0.004 to 12.5 µg/mL

Question: And the MIC50 (Streptococcus I; 18 h)?
Answer: 0.025 µg/mL (≈ 0.0472 µM)

Question: What about the MIC90 (Streptococcus I; 18 h) of the same compound?
Answer: 6.25 µg/mL (≈ 11.8 µM)

Question: And the MIC (Pseudomonas II)?
Answer: 0.391 to 12.5 µg/mL (≈ 0.738 to 23.6 µM)

Question: What about the MIC50 (Pseudomonas II) of the same compound?
Answer: 1.56 µg/mL (≈ 2.95 µM)

Question: And the MIC90 (Pseudomonas II)?
Answer: 6.25 µg/mL (≈ 11.8 µM)

Question: And the “MIC Range” value (Enterobacter cloacae)?
Answer: 0.007 to 12.5 µg/mL

Question: And the MIC50 (Enterobacter cloacae; 18 h)?
Answer: 0.025 µg/mL (≈ 0.0472 µM)

Question: And the MIC90 (Enterobacter cloacae; 18 h)?
Answer: 0.391 µg/mL (≈ 0.738 µM)

Question: And the MIC [8]?
Answer: 0.195 µg/mL (≈ 0.368 µM)

Question: What about the MIC (Enterobacter cloacae P99) of the same compound?
Answer: 12.5 µg/mL (≈ 23.6 µM)

Question: What about the “Relative hydrolysis by β-lactamase” value [9] of the same compound?
Answer: 0.2

Question: And the “Relative hydrolysis by β-lactamase” value [10]?
Answer: 0.0

Question: What about the MIC [11] of the same compound?
Answer: 0.391 µg/mL (≈ 0.738 µM)

Question: And the MIC (Staphyloccus aureus 285)?
Answer: 0.781 µg/mL (≈ 1.47 µM)

From US5336673A, “3-substituted cephem compounds” (priority 1990, dated 1994)
